Measured values from EP0121013A1, “Oral compositions” (UNILEVER PLC, priority 1983, dated 1984).

Key:
[1] = applied topically to the teeth; Caries Res. 3, 315-325, 1969; cited from earlier work
[2] = Ionisation: release of available F; assay type: physicochemical
Source text: The corresponding values for Na2SnF6 are 73% and 38%, respectively. Thus Na2SnF6 is less ionised than Sn(NH4)2F6.

[3] = test system: Streptococcus salivarius H257; test: Inhibition of bacterial growth (optical density after 24 hours); assay type: cell-based; details: S.salivarius H-257; for IC50: 24 hours at 37°C, means of triplicate experiments, read-out: ID/50 (the source's name); for ID/50: recalculated as ppm F, 1440 min
Source text: (§1) Cariogenic Bacteria used for testing the effect of Sn(^NH4)2F6 were Streptococcus mutans (strains coded 6715 and OMZ-176), Streptococcus sanguis (strains coded 10556 and 10557), Streptococcus salivarius (strains coded SS4 and H257), and Lactobacillus casei. All of the above organisms were maintained as lyophilised cultures until the time for use.
(§2) It is generally agreed that oral bacteria are responsible for tooth decay. Therefore, a reduction of the cariogenic flora usually results in a decrease in caries formation. The inhibitory action of the test compounds was. determined by adding each salt, at known concentrations, to a culture of cariogenic bacteria. After 24 hours at 37°C bacterial growth was monitored as a change in optical density. A dose response curve (concentration of salt vs. growth) for each compound against each bacterial isolate was plotted in order to obtain the concentration of test agent which would cause a 50% inhibition in growth (ID/50). This is a useful ranking index since it is not always possible to obtain complete inhibition with weak germicidal agents. Only those compounds which were able to elicit an ID/50 response were considered as inhibitory agents.
(§3) The medium used for bacterial growth experiments was Trypticase Soy Broth (B.B.L.: Baltimore Biological Labs., Baltimore, MD) supplemented with 0.1% Tween 80 (the word Tween is a trade mark) and 0.05% sodium thioglycollate. The test organisms, as lyophilised cells, were grown overnight in 50 mls of growth medium in a vacuum desiccator with an atmosphere of 97% CO /3% H2 at 35°C. These cultures were then used at a 0.2% inoculum to prepare second stage seed flasks. The test media (10ml) consisting of growth medium plus the potential inhibitors, contained in 16 x 120 mm screw top test tubes, were inoculated with the second stage seed cultures to given an absorbancy reading of 0.05. Immediately after inoculation the cultures were incubated for 24 hours under anaerobic conditions.
(§4) The growth medium was sterilised by autoclaving, whereas the potential inhibitors (as aqueous solutions) were sterilised by filtering each solution separately through a Millipore membrane (0.22 /u).
(§5) Absorbance at 600 nm versus a medium control was used as a measure of growth on a Beckman Model B spectrophotometer. All absorbancy readings were determined in 16 mm x 120 mm Kimax test tubes. This instrument was linear to 0.60 OD units; thus, all cultures displaying values above this range were diluted with the control, accordingly.

[4] = test system: Streptococcus mutans 6715; test: as above; assay type: cell-based; details: S.mutans 6715; recalculated as ppm F; 1440 min
Source text: as §1, §2, §3, §4, §5

[5] = test system: Streptococcus sanguis 10556; test: as above; assay type: cell-based; details: S.sanguis 10556; for IC50: 24 hours at 37°C, means of triplicate experiments, read-out: ID/50 (the source's name); for ID/50: recalculated as ppm F, 1440 min
Source text: as §1, §2, §3, §4, §5

[6] = test system: Streptococcus mutans OMZ-176; test: as above; assay type: cell-based; details: S.mutans OMZ-176; for IC50: 24 hours at 37°C, means of triplicate experiments, read-out: ID/50 (the source's name); for ID/50: recalculated as ppm F, 1440 min
Source text: as §1, §2, §3, §4, §5

[7] = test system: Streptococcus salivarius SS4; test: as above; assay type: cell-based; details: S.salivarius SS4; for IC50: 24 hours at 37°C, means of triplicate experiments, read-out: ID/50 (the source's name); for ID/50: recalculated as ppm F, 1440 min
Source text: as §1, §2, §3, §4, §5

[8] = test system: Lactobacillus casei; test: as above; assay type: cell-based; details: L.casei; for IC50: 24 hours at 37°C, means of triplicate experiments, read-out: ID/50 (the source's name); for ID/50: recalculated as ppm F, 1440 min
Source text: as §1, §2, §3, §4, §5

[9] = test system: Streptococcus sanguis 10557; test: as above; assay type: cell-based; details: S.sanguis 10557; for IC50: 24 hours at 37°C, means of triplicate experiments, read-out: ID/50 (the source's name); for ID/50: recalculated as ppm F, 1440 min
Source text: as §1, §2, §3, §4, §5

[10] = Stability of aqueous solution on standing (haze / turbidity); assay type: physicochemical; details: 1000 ppm F- solution of Sn(NH4)2F6 on standing several weeks; SnF2 solution after 24 hours at room temperature
[11] = pH of aqueous solution; assay type: physicochemical
Source text: An aqueous solution of Sn(NH4)2F6 has a ^pH of about 3.8 as compared to a pH of 3.0 for SnF2. This higher pH characteristic eliminates some of the formulation problems encountered with the strong acid effect of SnF2. The preferred pH of oral compositions containing ^Sn(NH4)2F6 is from 3.5 to 8.0. A 1000 ppm F^- solution of Sn(NH4)2F6 was stable.

[12] = concentration equivalent to 1000 ppm
[13] = concentration equivalent to 2500 ppm

**Q.** For `[F-].[F-].[F-].[F-].[F-].[F-].[Na+].[Na+].[Sn+4]` [Na2SnF6, sodium hexafluorostannate], which caries inhibiting effect [1] is on record?
**A.** has a caries inhibiting effect

**Q.** What about the “released available F” value [2, 12] of the same compound?
**A.** 73%

**Q.** What about the “released available F” value [2, 13] of the same compound?
**A.** 38%

**Q.** Which results are given for `[F-].[Na+]` [NaF]?
**A.** IC50 [3]: 3770 µM; ID/50 [3]: 72 ppm F; ID/50 [4]: 138 ppm F; IC50 [5]: 1180 µM; ID/50 [5]: 22 ppm F; IC50 [6]: 16300 µM; ID/50 [6]: 309 ppm F; IC50 [7]: 13400 µM; ID/50 [7]: 255 ppm F; IC50 [8]: > 12000 µM; ID/50 [8]: 352 ppm F; IC50 [9]: 1820 µM; ID/50 [9]: 35 ppm F

**Q.** Which stability of solution [10] does the source give for `N.N.[F-].[F-].[F-].[F-].[F-].[F-].[Sn]` [Sn(NH4)2F6, stannic ammonium fluoride] here?
**A.** stable

**Q.** What about the pH [11] of the same compound?
**A.** about 3.8

**Q.** What about the “released available F” value [2, 12] of the same compound?
**A.** the same ionisation values as SnF2

**Q.** And the “released available F” value [2, 13]?
**A.** the same ionisation values as SnF2

**Q.** And the IC50 [3]?
**A.** 400 µM

**Q.** What about the ID/50 [3] of the same compound?
**A.** 46 ppm F

**Q.** And the ID/50 [4]?
**A.** 137 ppm F

**Q.** And the IC50 [5]?
**A.** 220 µM

**Q.** What about the ID/50 [5] of the same compound?
**A.** 25 ppm F

**Q.** What about the IC50 [6] of the same compound?
**A.** 1430 µM

**Q.** What about the ID/50 [6] of the same compound?
**A.** 163 ppm F

**Q.** And the IC50 [7]?
**A.** 1650 µM

**Q.** What about the ID/50 [7] of the same compound?
**A.** 188 ppm F

**Q.** And the IC50 [8]?
**A.** 2530 µM

**Q.** What about the ID/50 [8] of the same compound?
**A.** 288 ppm F

**Q.** What about the IC50 [9] of the same compound?
**A.** 390 µM

**Q.** What about the ID/50 [9] of the same compound?
**A.** 45 ppm F

**Q.** With `[Cl][Sn][Cl]` [SnCl2] as the compound, how does the IC50 [8] read?
**A.** 3000 to 6000 µM

**Q.** With `[F][Sn][F]` [SnF2] as the compound, how does the stability of solution [10] read?
**A.** developed turbidity

**Q.** And the pH [11]?
**A.** 3.0

**Q.** And the “released available F” value [2, 12]?
**A.** 80%

**Q.** What about the “released available F” value [2, 13] of the same compound?
**A.** 45%

**Q.** What about the IC50 [3] of the same compound?
**A.** 740 µM

**Q.** What about the ID/50 [3] of the same compound?
**A.** 29 ppm F

**Q.** And the ID/50 [4]?
**A.** 56 ppm F

**Q.** And the IC50 [5]?
**A.** 440 µM

**Q.** What about the ID/50 [5] of the same compound?
**A.** 17 ppm F

**Q.** And the IC50 [6]?
**A.** 2280 µM

**Q.** What about the ID/50 [6] of the same compound?
**A.** 87 ppm F

**Q.** And the IC50 [7]?
**A.** 2450 µM

**Q.** And the ID/50 [7]?
**A.** 93 ppm F

**Q.** What about the IC50 [8] of the same compound?
**A.** 2970 µM

**Q.** What about the ID/50 [8] of the same compound?
**A.** 113 ppm F

**Q.** And the IC50 [9]?
**A.** 840 µM

**Q.** What about the ID/50 [9] of the same compound?
**A.** 32 ppm F
